Assay [1] has as its system H37Rv-TB. Nature of the assay: MIC re-screen in the presence of 4% BSA and 10% FBS. It is filed as cell-based, Mycobacterium tuberculosis. The following applies: ATP and MABA readouts.
The subject of assay [2] is H37Rv TB. Nature of the assay: Whole cell MIC against H37Rv. The following applies: Mycobacterium tuberculosis. The format is cell-based.
For assay [3], the system named is M. bovis BCG. Put plainly: microbe, parasite or virus in culture. The format is cell-based. The following applies: Mycobacterium tuberculosis variant bovis BCG, read-out: MIC90 M. bovis BCG.

Structures are written as SMILES. In brackets after ≈: the same amount, converted by molar mass.

With `Cc1ccn2c(C(=O)NCc3ccccc3)c(C)nc2c1` [Compound 1], the MIC shift result in assay [1] is “less than two fold”.

On to `Cc1ccn2c(C(=O)NCc3ccc(Cl)c(Cl)c3)c(C)nc2c1` [Compound 7], for which the MIC (as a rule, the lowest concentration that inhibits growth of the organism) in assay [2] was in the range of 9 to 14 µM (≈ 3.13 to 4.88 µg/mL). The same measure, in the same setting: then `Cc1ccn2c(C(=O)NCc3cccc(F)c3)c(C)nc2c1` [Compound 8], with approximately 0.3 µM (≈ 0.0892 µg/mL). In the case of `COc1cccc(CNC(=O)c2c(C)nc3ncc(C)cn23)c1` [Compound 10], the MIC shift entry in assay [1] is “less than two fold”.

`CO[C@H]1/C=C/O[C@@]2(C)Oc3c(C)c(O)c4c(O)c(c(/C=N/N5CCN(C)CC5)c(O)c4c3C2=O)NC(=O)/C(C)=C\C=C\[C@H](C)[C@H](O)[C@@H](C)[C@@H](O)[C@@H](C)[C@H](OC(C)=O)[C@@H]1C` [RMP, Rifampicin]: in assay [3], the MIC90 is less than 0.78 µM. Regarding `CCOC(=O)c1c(C)nc2cc(C)ccn12` [ethyl 2,7-dimethylimidazo[1,2-a]pyridine-3-carboxylate], in assay [2], the MIC was approximately 65 µM (≈ 14.2 µg/mL).

For the origin of these results see PMC3117668 (ACS medicinal chemistry letters, 2011).
